Consider 1 compound from patent US20220054494A1, “METHODS FOR TREATING BLADDER AND URETHRA DYSFUNCTION AND DISEASE” (University of Pittsburgh - Of the Commonwealth System of …, priority 2019, published 2022).

“Also recorded” adds a separate entry of the source.

Assay type in all cases: in vivo, rat
One assay concerns bladder blood flow. Kind of assay: Laser Doppler flowmeter bladder blood flow, aged rats. The settings on record: oral 8-AG 5 mg/kg/day, 6 weeks, compared with young rats. An excerpt: Vascular Changes: Bladders that had been perfused transcardially with PBS buffer containing 20 nm yellow-green fluorescent beads (THERMO FISHER®, F8787) to highlight the vasculature were fixed then cleared by removing lipids and dissolving light-absorbing chromophores within the tissue. Volumetric data were acquired using a Caliber ID RS-G4 ribbon scanning confocal microscope (NIKON® Inc, Tokyo, Japan), which can acquire large-area images (uses a high nA (1.0) long working distance (8 mm) with low magnification (20×)). This affords the advantage of interrogating whole tissues in a three-dimensional environment without the need to section. Real-time blood perfusion (1 mm3 tissue) was accomplished using a BLF22D laser Doppler flowmeter (Transonic Systems, Inc) with a surface probe (TypeS-APLPHS) applied to the serosal surface of the bladder (apex and neck) wall using Doppler light shift from moving RBCs to analyze flow by the Bonner algorithm. This method gives robust, non-invasive microvascular flow signals in the bladder wall of anesthetized rats.

Assay [1] relates to bladder wall collagen fibers. Nature of the assay: Planar biaxial mechanical testing coupled with multiphoton microscopy of bladder wall. As to conditions: aged rats. The method, then:
Protocol 3: Planar biaxial mechanical testing coupled with multiphoton microscopy was performed on bladder wall specimens to assess bladder mechanical function while simultaneously observing changes in the collagen microstructure. Briefly, the unloaded intact bladder diameter (do) and meridional length (hv) were measured and used to calculate the unloaded bladder volume (V0) from the ellipsoid volume, V0=πd0^2h0/6. The intact bladders were then cut open longitudinally and trimmed into 6±1 mm×6±1 mm square specimens for mechanical testing with sides aligned in the in situ longitudinal and circumferential directions. Samples were then positioned in the custom-designed biaxial testing system and mechanically tested using fiducial markers on the sample to calculate stretch, defined as the ratio of distance between markers in sample when loaded and unloaded. A multiphoton microscope (OLYMPUS® FV1000 MPE) equipped with a Coherent Cheleon TiSapphire pulsed Laser was used to image the undulated (wavy) collagen fibers in the mounted samples without staining or fixation during loading (i.e., stretch) as per previously published methods. Stacks of 2D planar images were generated by imaging sequentially across the wall thickness. To avoid tissue damage while obtaining a large range of stretch, loading was stopped at the stretch where collagen fibers were visibly straightened (heretofore termed recruited). This was defined as the maximum stretch. Fiber tortuosity was measured by tracing collagen fibers across the 2D slices (Filament function in Imaris, Bitplane, Switzerland). Fiber arc length (s) and cord length (L) were determined for each fiber tracing and used to calculate the tortuosity. The tortuosity of an undulated or wavy fiber is, therefore, greater than one and approaches one as the fiber becomes fully straightened.
Bi-axial Stretch Combined with Multi-Photon (MPM) Imaging: Planar biaxial mechanical testing coupled with multiphoton microscopy was performed on bladder wall specimens to assess bladder mechanical function while simultaneously observing changes in the collagen microstructure. Briefly, the unloaded intact bladder diameter (do) and meridional length (hv) were measured and used to calculate the unloaded bladder volume (V0) from the ellipsoid volume, V0=πd0^2h0/6. The intact bladders were then cut open longitudinally and trimmed into 6±1 mm×6±1 mm square specimens for mechanical testing with sides aligned in the situ longitudinal and circumferential directions. […] Fiber tortuosity was measured by tracing collagen fibers across the 2D slices (Filament function in Imaris, Bitplane, Switzerland). Fiber arc length (s) and cord length (L) were determined for each fiber tracing and used to calculate the tortuosity. […]

The next assay has as its system MCP-1. Nature of the assay: RT-qPCR of bladder MCP-1 mRNA in CYP cystitis model. As to conditions: CYP (75 mg/kg i.p.) female Sprague Dawley rats; oral 8-AG 5 mg/kg/day starting one week prior to CYP. On the procedure:
Animals: Female Sprague Dawley rats were employed in this example (Charles River; Wilmington, Mass.). Three groups of animals were included. Group 1 received an i.p. injection of saline and was used as a control; groups 2 and 3 received an i.p. injection of cyclophosphamide (CYP, SIGMA-ALDRICH®, St Louis, Mo., day 0, 3, 6, sacrifice day 8, 75 mg/kg, i.p.) with group 3 treated with oral 8-AG (5 mg/kg/day; starting one week prior to CYP). CYP induced bladder inflammation and is a well-established pre-clinical model for BPS/IC.
RT-qPCR: Total RNA was isolated from bladders using TRIZOL® Reagent (THERMO FISHER SCIENTIFIC®; Waltham, Mass.) according to the manufacturer's instructions. The cDNA was synthesized using ISCRIPT™ cDNA synthesis kit (BIO-RAD®). qPCR analysis was performed using Power SYBR™ Green PCR Master Mix (THERMO FISHER SCIENTIFIC®) in the APPLIED BIOSYSTEMS® QUANTSTUDIO™ 3 Real-Time PCR System (THERMO FISHER SCIENTIFIC®). The primers used were as follows: for IL-1beta, 5′-[…]-3′ (forward; SEQ ID NO: 1) and 5′-[…]-3′ (reverse; SEQ ID NO: 2); for MCP-1, 5′-[…]-3′ (forward; SEQ ID NO: 3) and 5′-[…]-3′ (reverse; SEQ ID NO: 4); for β-actin, 5′-ACTCTTCCAGCCTTCCTTC-3′ (forward; SEQ ID NO: 5) and 5′-[…]-3′ (reverse; SEQ ID NO: 6). The threshold cycle (Ct) for target was subtracted from Ct for β-actin to give ΔCt. Results are expressed as 2AC.
For orientation: In qPCR the cycle at which signal appears reflects the starting amount.

`Nc1nc2[nH]c(N)nc2c(=O)[nH]1` [8-AG, 8-Aminoguanine]: the “bladder blood flow (Doppler flowmeter)” value in the assay on bladder blood flow is reported as “no significant difference; also recorded: reversed to a younger state”. Besides, in assay [1] (oral 8-AG 5 mg/kg/day, 6 weeks), the “bladder compliance (stress-stretch curve)” value is listed as “more extensible (or compliant) bladder; also recorded: more extensible, compliant bladder”; the “collagen fiber tortuosity in the detrusor layer” value is given as “increased; also recorded: restored fiber tortuosity to that of younger rats”; the “collagen fiber tortuosity in the lamina propria” value is recorded as “increased; also recorded: Normalizing; also recorded: restored fiber tortuosity to that of younger rats”. For the same compound, in assay [1] (oral 8-AG for 1 week and 4 weeks), the “critical stretch at which the steep increase in bladder stiffness occurs” value is “recovered to levels found in young rats”. Further, in the assay on MCP-1, the “MCP-1 mRNA expression in bladder” value is “suppressed; also recorded: near the detection limit; also recorded: nearly abolished”.
